Values quoted from earlier work as cited in patent US20210145778A1, “Stable Liquid Compositions of Melphalan” (Orbicular Pharmaceutical Technologies Pvt. Ltd., priority 2018, published 2021).

N[C@@H](Cc1ccc(N(CCCl)CCCl)cc1)C(=O)O [Melphalan, L-phenylalanine mustard]
Stability in aqueous solutions: poor stability
